From patent publication US20100286139A1, “AMINO PYRAZOLE COMPOUND” (ELI LILLY AND COMPANY, priority 2008, published 2010) come the findings set out here.

SMILES strings stand for the structures.

For the assay, the target named is T1, JAK3 (Homo sapiens, UniProt P52333).
T1 construct: host or cells: NK-92 natural killer cells, IL-2-stimulated
T1 sequence (P52333 1-1124): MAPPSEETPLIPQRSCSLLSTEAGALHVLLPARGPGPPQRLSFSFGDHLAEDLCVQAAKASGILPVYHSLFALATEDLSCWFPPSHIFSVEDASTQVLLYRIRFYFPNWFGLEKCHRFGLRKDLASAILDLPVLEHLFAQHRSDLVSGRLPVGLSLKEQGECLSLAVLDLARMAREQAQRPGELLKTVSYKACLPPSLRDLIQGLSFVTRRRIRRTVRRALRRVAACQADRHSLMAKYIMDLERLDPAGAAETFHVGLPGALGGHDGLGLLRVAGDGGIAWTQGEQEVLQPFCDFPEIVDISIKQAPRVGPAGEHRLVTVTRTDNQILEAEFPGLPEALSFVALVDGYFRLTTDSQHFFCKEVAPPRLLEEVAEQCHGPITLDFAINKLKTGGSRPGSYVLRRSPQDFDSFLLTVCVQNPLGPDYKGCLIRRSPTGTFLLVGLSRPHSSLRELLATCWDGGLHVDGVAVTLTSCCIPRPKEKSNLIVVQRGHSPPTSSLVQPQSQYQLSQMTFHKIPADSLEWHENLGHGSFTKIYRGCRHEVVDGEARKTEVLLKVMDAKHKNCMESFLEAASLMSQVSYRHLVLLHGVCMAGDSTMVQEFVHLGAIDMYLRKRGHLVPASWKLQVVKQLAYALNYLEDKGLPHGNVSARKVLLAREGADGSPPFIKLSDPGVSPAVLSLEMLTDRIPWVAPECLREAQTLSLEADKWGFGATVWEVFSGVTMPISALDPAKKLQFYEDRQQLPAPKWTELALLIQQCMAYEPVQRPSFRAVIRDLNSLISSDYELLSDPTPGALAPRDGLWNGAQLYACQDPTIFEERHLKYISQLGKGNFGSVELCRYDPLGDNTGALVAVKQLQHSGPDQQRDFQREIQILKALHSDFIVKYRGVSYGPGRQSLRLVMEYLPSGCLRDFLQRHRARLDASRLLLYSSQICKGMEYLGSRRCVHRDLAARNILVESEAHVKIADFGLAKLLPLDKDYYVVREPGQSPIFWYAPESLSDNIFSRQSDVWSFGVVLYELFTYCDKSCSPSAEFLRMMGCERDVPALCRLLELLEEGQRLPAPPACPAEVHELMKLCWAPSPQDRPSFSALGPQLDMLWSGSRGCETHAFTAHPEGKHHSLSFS
Description: JAK3 IL-2-NK-92/pSTAT5 cell-based assay (Cellomics ArrayScan HCS). The source says:
IL-2 activates the JAK3 pathway in natural killer (NK) cells to drive the NK and CD8 lymphocyte proliferation. Therefore, IL-2 stimulated NK92/pSTAT5 cell-based assay enables the evaluation of the JAK3 cellular activity of JAK2 compounds in vitro.
NK-92 (natural killer) cells (ATCC, Manassas, Va.) are maintained in minimum essential medium (MEM) Alpha with 15% fetal bovine serum, 15% Horse Serum and 1× antibiotic/antimycotic (Invitrogen, Carlsbad, Calif.). The medium is supplemented with IL-2 (R&D systems, Minneapolis, Minn.) for a final concentration of 4 ng/mL. Cells are kept at 37° C. with 5% CO2. Cells are starved in serum free medium to remove endogenous growth factors. NK-92 cells are counted and collected to seed 2×10^7 cells per 96-well plate at a density of 2×10^5 cells per well. The cells are rinsed twice with unsupplemented MEM Alpha (MEM Alpha) before suspending cells at a final concentration of 8×10^5 cells/mL in MEM Alpha with 0.6% serum (0.3% FBS, 0.3% horse serum). […]
To perform the assay, serum-starved cells are collected and washed once with unsupplemented RPMI 1640 medium. […] An aliquot of 200 μL of 1 to 10 dilution of Mouse anti-pSTAT5 (pY694) Alexa Fluor 647® in fluorescence activated cell sorting (FACS) buffer is added to the cells. […] Mean fluorescent intensity data are collected and analyzed using Cellomics Arrayscan® VTi. […] The MSR is determined to be 2.06. […]

On to `Cc1cc(Nc2cc(CN3CCOCC3)c3nc(C)c(Cc4ccc(Cl)cc4F)n3n2)n[nH]1` [3-(4-Chloro-2-fluorobenzyl)-2-methyl-N-(5-methyl-1H-pyrazol-3-yl)-8-(morpholinomethyl)imidazo[1,2-b]pyridazin-6-amine], for which, where the note is “JAK3 IL2-NK92-pSTAT5 IC50 over JAK2 EPO-TF1/pSTAT5 IC50”, the “ratio of JAK3/JAK2 IC50” value is given as 28.5 fold. For the same compound, the IC50 (NK-92 cells, IL-2 0.5 ng/mL stimulated, n=4, read-out: relative IC50, inhibition of pSTAT5) was found to be 940 nM.
